Experimental data taken from patent publication US20240287138A1, “CYCLIC PEPTIDES FOR INHIBITING TNF RECEPTOR 1 ACTIVITY” (Merck Sharp & Dohme LLC, priority 2023, published 2024).
Numbered stars: 1 amine (or outer) side, 2 acyl side, 3 side chain; on linkers, the order of the positions; unused ones are H or OH. Bridge positions count the residues as written; N and C are the ends. Square brackets hold non-standard residues; d marks the D form. Peptide text beside a SMILES is read from it. * marks the point of attachment. Trp(βS-Me,7-OMe) = COc1cccc2c([C@H](C)[C@H](N)C(=O)O)c[nH]c12; Trp(7-Cl) = N[C@@H](Cc1c[nH]c2c(Cl)cccc12)C(=O)O; Phe(3-CONH2) = NC(=O)c1cccc(C[C@H](N)C(=O)O)c1; Phe(4-CONH2) = NC(=O)c1ccc(C[C@H](N)C(=O)O)cc1; Phe(4-COOH) = N[C@@H](Cc1ccc(C(=O)O)cc1)C(=O)O; Trp(7-aza) = N[C@@H](Cc1c[nH]c2ncccc12)C(=O)O; dPro(4S-NH2) = N[C@@H]1CN[C@@H](C(=O)O)C1; Pip(5R-OH) = O=C(O)[C@@H]1CC[C@@H](O)CN1; X1 = O=C([C@@H]1CC[C@H](N[*:1])C1)[*:2]; X19 = O=C([C@H](Cc1ccncn1)N[*:1])[*:2]; Isoxazole(3-carbonyl) = O=C(c1ccon1)*; Pip(4-aza) = O=C(O)[C@@H]1CNCCN1; hPhe = N[C@@H](CCc1ccccc1)C(=O)O; 4Pal = N[C@@H](Cc1ccncc1)C(=O)O; NMeE = CN[C@@H](CCC(=O)O)C(=O)O; dHyp = O=C(O)[C@H]1C[C@H](O)CN1; X7 = CC[C@@H](C(=O)[*:1])[*:2]; αMeS = C[C@](N)(CO)C(=O)O; Nle = CCCC[C@H](N)C(=O)O; Dab = NCC[C@H](N)C(=O)O; Sar = CNCC(=O)O

Tests used:
[1] = molecular target: T1, human soluble TNFR1 (sTNFR1) (Homo sapiens, UniProt P19438); assay: Human sTNFR1-peptide displacement assay (LanthaScreen Eu TR-FRET binding assay)
T1 construct: made in house; host or cells: Sf21 (baculovirus)
T1 sequence (P19438 with tags, fused parts or gaps): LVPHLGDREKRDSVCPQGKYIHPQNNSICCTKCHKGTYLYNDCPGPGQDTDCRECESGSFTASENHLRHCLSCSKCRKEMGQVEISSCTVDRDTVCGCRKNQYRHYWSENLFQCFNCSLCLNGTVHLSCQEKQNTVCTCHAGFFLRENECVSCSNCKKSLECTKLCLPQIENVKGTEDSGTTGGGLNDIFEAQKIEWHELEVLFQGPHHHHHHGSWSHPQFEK
Method in brief: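 Readout is the 665/615 nm TR-FRET ratio (Eu anti-His donor, streptavidin-Alexa647 acceptor), normalized to DMSO and saturating displacer, fit by Morrison-based five-parameter logistic for Kd^app. His-tagged sTNFR1 (1-211) prebound to 100 nM biotinylated peptide SEQ ID NO.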

[2] = molecular target: T2, human TNFR1 extracellular domain (ECD) protein (Homo sapiens, UniProt P19438); assay: SPR binding affinity to captured human TNFR1 ECD
T2 construct: HRV 3C protease cleavage site (C); 6His (C, cleaved yes); made in house; host or cells: Sf21 insect cells (baculovirus), secreted
T2 sequence (P19438 30-211): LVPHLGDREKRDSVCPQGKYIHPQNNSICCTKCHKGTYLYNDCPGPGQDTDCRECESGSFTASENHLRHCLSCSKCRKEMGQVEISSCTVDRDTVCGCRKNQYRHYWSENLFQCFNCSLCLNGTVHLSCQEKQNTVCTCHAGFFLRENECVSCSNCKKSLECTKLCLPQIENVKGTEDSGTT
Method in brief: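 Insect-cell human receptor ECDs, enzymatically biotinylated, immobilized via streptavidin capture chip. Peptide binding and dissociation measured in RU in pH 7.4 HEPES buffer containing 2% DMSO; chip regenerated per analyte. Rate constants give affinity.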

Row | Structure (SMILES) | Kd [1] [pM] | Kd [2] [pM] | IC50 [1] [pM]
1 | CCCC[C@@H]1NC(=O)[C@@H]2CC[C@@H](C2)NC(=O)[C@H]([C@@H](C)c2c[nH]c3c(OC)cccc23)NC(=O)CN(C)C(=O)[C@H](Cc2ccc(C(=O)O)cc2)NC(=O)[C@H](Cc2ccc(C(N)=O)cc2)NC(=O)[C@](C)(CO)NC(=O)[C@H](Cc2c[nH]c3c(Cl)cccc23)NC(=O)[C@H](Cc2ccncn2)NC(=O)[C@H](CC(N)=O)NC(=O)[C@H]2C[C@H](O)CN2C(=O)[C@H](Cc2c[nH]c3ncccc23)NC(=O)[C@@H]2CC[C@@H](O)CN2C(=O)[C@H](Cc2ccncc2)NC1=O [SEQ ID NO. 159] (cyclo([4Pal][Pip(5R-OH)][Trp(7-aza)][dHyp]N[X19][Trp(7-Cl)][αMeS][Phe(4-CONH2)][Phe(4-COOH)][Sar][Trp(βS-Me,7-OMe)][X1][Nle])) | 120 | 50 | –
2 | CCCC[C@@H]1NC(=O)[C@@H]2CC[C@@H](C2)NC(=O)[C@H]([C@@H](C)c2c[nH]c3c(OC)cccc23)NC(=O)CN(C)C(=O)[C@H](Cc2ccc(O)cc2)NC(=O)[C@H](Cc2ccc(C(=O)O)cc2)NC(=O)[C@](C)(CO)NC(=O)[C@H](Cc2c[nH]c3c(Cl)cccc23)NC(=O)[C@H](Cc2ccncc2)NC(=O)[C@H](CC(N)=O)NC(=O)[C@H]2C[C@H](N)CN2C(=O)[C@H](Cc2c[nH]c3ccccc23)NC(=O)[C@@H]2CNCCN2C(=O)[C@H](Cc2ccncc2)NC1=O [SEQ ID NO. 161] (cyclo([4Pal][Trp(7-Cl)][αMeS][Phe(4-COOH)]Y[Sar][Trp(βS-Me,7-OMe)][X1][Nle][4Pal][Pip(4-aza)]W[dPro(4S-NH2)]N)) | 90 | 20 | –
3 | CCCC[C@@H]1NC(=O)[C@@H]2CC[C@@H](C2)NC(=O)[C@H]([C@@H](C)c2c[nH]c3c(OC)cccc23)NC(=O)CN(C)C(=O)[C@H](Cc2ccc(O)cc2)NC(=O)[C@H](Cc2ccc(C(N)=O)cc2)NC(=O)[C@](C)(CO)NC(=O)[C@H](Cc2c[nH]c3c(Cl)cccc23)NC(=O)[C@H](Cc2ccncc2)NC(=O)[C@H](CC(N)=O)NC(=O)[C@H](CCC(=O)O)N(C)C(=O)[C@H](Cc2c[nH]c3ccccc23)NC(=O)[C@@H]2CC[C@@H](O)CN2C(=O)[C@H](Cc2ccncc2)NC1=O [SEQ ID NO. 163] (cyclo([4Pal][Trp(7-Cl)][αMeS][Phe(4-CONH2)]Y[Sar][Trp(βS-Me,7-OMe)][X1][Nle][4Pal][Pip(5R-OH)]W[NMeE]N)) | 50 | 50 | –
4 | CCCC[C@@H]1NC(=O)[C@H](CC)SC[C@@H](C(N)=O)NC(=O)[C@H]([C@@H](C)c2c[nH]c3c(OC)cccc23)NC(=O)CN(C)C(=O)[C@H](Cc2ccc(O)cc2)NC(=O)[C@H](Cc2ccc(C(N)=O)cc2)NC(=O)[C@](C)(CO)NC(=O)[C@H](Cc2c[nH]c3c(Cl)cccc23)NC(=O)[C@H](Cc2ccc(C(=O)O)cc2)NC(=O)[C@H](CC(N)=O)NC(=O)[C@H](CCC(=O)O)N(C)C(=O)[C@H](Cc2c[nH]c3ncccc23)NC(=O)[C@@H]2CC[C@@H](O)CN2C(=O)[C@H](Cc2ccncc2)NC1=O [SEQ ID NO. 168] ([Nle][4Pal][Pip(5R-OH)][Trp(7-aza)][NMeE]N[Phe(4-COOH)][Trp(7-Cl)][αMeS][Phe(4-CONH2)]Y[Sar][Trp(βS-Me,7-OMe)]C-NH2; linker N-14 via X7) | – | 370 | 300
5 | COc1cccc2c([C@H](C)[C@@H]3NC(=O)CN(C)C(=O)[C@H](Cc4cccc(C(N)=O)c4)NC(=O)[C@H](Cc4ccc(C(N)=O)cc4)NC(=O)[C@](C)(CO)NC(=O)[C@H](Cc4c[nH]c5c(Cl)cccc45)NC(=O)[C@H](Cc4ccncc4)NC(=O)[C@H](CC(N)=O)NC(=O)[C@H]4C[C@H](O)CN4C(=O)[C@H](Cc4c[nH]c5ccccc45)NC(=O)[C@@H]4CC[C@@H](O)CN4C(=O)[C@H](Cc4ccncc4)NC(=O)[C@H](CCNC(=O)c4ccon4)NC(=O)[C@@H]4CC[C@@H](C4)NC3=O)c[nH]c12 [SEQ ID NO. 169] (cyclo([4Pal][Trp(7-Cl)][αMeS][Phe(4-CONH2)][Phe(3-CONH2)][Sar][Trp(βS-Me,7-OMe)][X1][Dab](Isoxazole(3-carbonyl))[4Pal][Pip(5R-OH)]W[dHyp]N)) | 160 | 80 | –
6 | CCCC[C@@H]1NC(=O)CSC[C@@H](C(N)=O)NC(=O)[C@H]([C@@H](C)c2c[nH]c3c(OC)cccc23)NC(=O)CN(C)C(=O)[C@H](Cc2ccc(O)cc2)NC(=O)[C@H](Cc2ccc(C(=O)O)cc2)NC(=O)[C@](C)(CO)NC(=O)[C@H](Cc2c[nH]c3c(Cl)cccc23)NC(=O)[C@H](Cc2ccncc2)NC(=O)[C@H](CC(N)=O)NC(=O)[C@H](CCC(=O)O)N(C)C(=O)[C@H](Cc2c[nH]c3ncccc23)NC(=O)[C@@H]2CNCCN2C(=O)[C@H](CCc2ccccc2)NC1=O [SEQ ID NO. 172] ({CH2CO}-[Nle][hPhe][Pip(4-aza)][Trp(7-aza)][NMeE]N[4Pal][Trp(7-Cl)][αMeS][Phe(4-COOH)]Y[Sar][Trp(βS-Me,7-OMe)]C-NH2; thioether N-14) | 570 | 200 | 630
